# Laboratory results as given in ChEMBL document CHEMBL3885861, “Open TG-GATES”.
# Species: Rattus norvegicus
# Experiment: Open TG-GATES - Regimen: Daily Repeat
# Format: toxicity, organism-based, Sprague-Dawley
# Parameters: regimen Daily Repeat, gender Male, age 6 weeks
# Details: in vivo, po, 30 mg/kg, route gavage, dose level Middle; for APTT / Bas / Eos / Fbg / Hb / Ht / Lym / MCH / MCHC / MCV / Mono / Neu / PT / Plat / RBC / Ret / WBC: tissue Blood; for KIDNEY_L / KIDNEY_R / KIDNEY_TOTAL: tissue Kidney; for LIVER: tissue Liver; for A/G / ALP / ALT / AST / BUN / CRE / Ca / Cl / DBIL / GLC / IP / K / LDH / Na / PL / RALB / TBIL / TC / TG / TP / gamma-GTP: tissue Plasma
smiles,measurement,setting,value
O=C1CN(/N=C/c2ccc([N+](=O)[O-])o2)C(=O)N1 [NITROFURANTOIN],TERMINAL_BW,"72 h, time 3 day",243.4 g
same,APTT,"72 h, time 3 day",18.9 s
same,Bas,"72 h, time 3 day",0%
same,Eos,"72 h, time 3 day",1%
same,Fbg,"72 h, time 3 day",216.2 mg/dL
same,Hb,"72 h, time 3 day",13.6 g/dL
same,Ht,"72 h, time 3 day",38.5%
same,Lym,"72 h, time 3 day",79.4%
same,MCH,"72 h, time 3 day",22 pg
same,MCHC,"72 h, time 3 day",35.3%
same,MCV,"72 h, time 3 day",62.3 fL
same,Mono,"72 h, time 3 day",3.2%
same,Neu,"72 h, time 3 day",15.4%
same,PT,"72 h, time 3 day",12.6 s
same,Plat,"72 h, time 3 day",121.2 x10_4/uL
same,RBC,"72 h, time 3 day",617.8 x10_4/ul
same,Ret,"72 h, time 3 day",6.3%
same,WBC,"72 h, time 3 day",106.9 x10_2/uL
same,KIDNEY_L,"72 h, time 3 day",1 g
same,KIDNEY_R,"72 h, time 3 day",1 g
same,KIDNEY_TOTAL,"72 h, time 3 day",2.1 g
same,LIVER,"72 h, time 3 day",11.6 g
same,A/G,"72 h, time 3 day",1.6
same,ALP,"72 h, time 3 day",1110 IU/L
same,ALT,"72 h, time 3 day",35.4 IU/L
same,AST,"72 h, time 3 day",67.2 IU/L
same,BUN,"72 h, time 3 day",14.2 mg/dL
same,CRE,"72 h, time 3 day",0.4 mg/dL
same,Ca,"72 h, time 3 day",10.6 mg/dL
same,Cl,"72 h, time 3 day",101.6 meq/L
same,DBIL,"72 h, time 3 day",0.094 mg/dL
same,GLC,"72 h, time 3 day",210.8 mg/dL
same,IP,"72 h, time 3 day",7.6 mg/dL
same,K,"72 h, time 3 day",3.8 meq/L
same,LDH,"72 h, time 3 day",212 IU/L
same,Na,"72 h, time 3 day",140.4 meq/L
same,PL,"72 h, time 3 day",140.2 mg/dL
same,RALB,"72 h, time 3 day",3.5 g/dL
same,TBIL,"72 h, time 3 day",0.1 mg/dL
same,TC,"72 h, time 3 day",70.6 mg/dL
same,TG,"72 h, time 3 day",80.2 mg/dL
same,TP,"72 h, time 3 day",5.6 g/dL
same,gamma-GTP,"72 h, time 3 day",1 IU/L
same,TERMINAL_BW,"[…], time 7 day",275.5 g
same,TERMINAL_BW,"[…], time 14 day",332 g
same,TERMINAL_BW,"[…], time 28 day",404.8 g
same,APTT,"[…], time 7 day",18.5 s
same,Bas,"[…], time 7 day",0%
same,Eos,"[…], time 7 day",1%
same,Fbg,"[…], time 7 day",223 mg/dL
same,Hb,"[…], time 7 day",13.5 g/dL
same,Ht,"[…], time 7 day",38%
same,Lym,"[…], time 7 day",81%
same,MCH,"[…], time 7 day",21.3 pg
same,MCHC,"[…], time 7 day",35.6%
same,MCV,"[…], time 7 day",60 fL
same,Mono,"[…], time 7 day",2.2%
same,Neu,"[…], time 7 day",15.4%
same,PT,"[…], time 7 day",12.6 s
same,Plat,"[…], time 7 day",125.8 x10_4/uL
same,RBC,"[…], time 7 day",634.2 x10_4/ul
same,Ret,"[…], time 7 day",5.3%
same,WBC,"[…], time 7 day",120.4 x10_2/uL
same,APTT,"[…], time 14 day",18.9 s
same,Bas,"[…], time 14 day",0%
same,Eos,"[…], time 14 day",0.8%
same,Fbg,"[…], time 14 day",224 mg/dL
same,Hb,"[…], time 14 day",14.4 g/dL
same,Ht,"[…], time 14 day",41.6%
same,Lym,"[…], time 14 day",79.4%
same,MCH,"[…], time 14 day",20.8 pg
same,MCHC,"[…], time 14 day",34.7%
same,MCV,"[…], time 14 day",60 fL
same,Mono,"[…], time 14 day",2.2%
same,Neu,"[…], time 14 day",16.8%
same,PT,"[…], time 14 day",12.4 s
same,Plat,"[…], time 14 day",120.1 x10_4/uL
same,RBC,"[…], time 14 day",693 x10_4/ul
same,Ret,"[…], time 14 day",4.7%
same,WBC,"[…], time 14 day",121.2 x10_2/uL
same,APTT,"[…], time 28 day",20.8 s
same,Bas,"[…], time 28 day",0%
same,Eos,"[…], time 28 day",1.2%
same,Fbg,"[…], time 28 day",215 mg/dL
same,Hb,"[…], time 28 day",15.3 g/dL
same,Ht,"[…], time 28 day",43.5%
same,Lym,"[…], time 28 day",80.8%
same,MCH,"[…], time 28 day",19.8 pg
same,MCHC,"[…], time 28 day",35.1%
same,MCV,"[…], time 28 day",56.5 fL
same,Mono,"[…], time 28 day",2.6%
same,Neu,"[…], time 28 day",14.2%
same,PT,"[…], time 28 day",12.7 s
same,Plat,"[…], time 28 day",118.4 x10_4/uL
same,RBC,"[…], time 28 day",770.8 x10_4/ul
same,Ret,"[…], time 28 day",2.9%
same,WBC,"[…], time 28 day",92.9 x10_2/uL
same,KIDNEY_L,"[…], time 7 day",1.1 g
same,KIDNEY_R,"[…], time 7 day",1.1 g
same,KIDNEY_TOTAL,"[…], time 7 day",2.2 g
same,KIDNEY_L,"[…], time 14 day",1.4 g
same,KIDNEY_R,"[…], time 14 day",1.4 g
same,KIDNEY_TOTAL,"[…], time 14 day",2.7 g
same,KIDNEY_L,"[…], time 28 day",1.5 g
same,KIDNEY_R,"[…], time 28 day",1.5 g
same,KIDNEY_TOTAL,"[…], time 28 day",3 g
same,LIVER,"[…], time 7 day",12.9 g
same,LIVER,"[…], time 14 day",14.8 g
same,LIVER,"[…], time 28 day",16.9 g
same,A/G,"[…], time 7 day",1.3
same,ALP,"[…], time 7 day",965 IU/L
same,ALT,"[…], time 7 day",30.6 IU/L
same,AST,"[…], time 7 day",57.6 IU/L
same,BUN,"[…], time 7 day",17.6 mg/dL
same,CRE,"[…], time 7 day",0.4 mg/dL
same,Ca,"[…], time 7 day",10.7 mg/dL
same,Cl,"[…], time 7 day",101.8 meq/L
same,DBIL,"[…], time 7 day",0.1 mg/dL
same,GLC,"[…], time 7 day",197.6 mg/dL
same,IP,"[…], time 7 day",7.1 mg/dL
same,K,"[…], time 7 day",4.2 meq/L
same,LDH,"[…], time 7 day",193 IU/L
same,Na,"[…], time 7 day",140.4 meq/L
same,PL,"[…], time 7 day",164 mg/dL
same,RALB,"[…], time 7 day",3.3 g/dL
same,TBIL,"[…], time 7 day",0.2 mg/dL
same,TC,"[…], time 7 day",80.6 mg/dL
same,TG,"[…], time 7 day",163.2 mg/dL
same,TP,"[…], time 7 day",5.8 g/dL
same,gamma-GTP,"[…], time 7 day",1.2 IU/L
same,A/G,"[…], time 14 day",1.4
same,ALP,"[…], time 14 day",790.8 IU/L
same,ALT,"[…], time 14 day",33.2 IU/L
same,AST,"[…], time 14 day",58 IU/L
same,BUN,"[…], time 14 day",15.8 mg/dL
same,CRE,"[…], time 14 day",0.4 mg/dL
same,Ca,"[…], time 14 day",10.4 mg/dL
same,Cl,"[…], time 14 day",102.8 meq/L
same,DBIL,"[…], time 14 day",0.1 mg/dL
same,GLC,"[…], time 14 day",212.6 mg/dL
same,IP,"[…], time 14 day",7.1 mg/dL
same,K,"[…], time 14 day",3.7 meq/L
same,LDH,"[…], time 14 day",180.8 IU/L
same,Na,"[…], time 14 day",140.6 meq/L
same,PL,"[…], time 14 day",161.4 mg/dL
same,RALB,"[…], time 14 day",3.4 g/dL
same,TBIL,"[…], time 14 day",0.2 mg/dL
same,TC,"[…], time 14 day",78 mg/dL
same,TG,"[…], time 14 day",126.6 mg/dL
same,TP,"[…], time 14 day",5.9 g/dL
same,gamma-GTP,"[…], time 14 day",1.2 IU/L
same,A/G,"[…], time 28 day",1.4
same,ALP,"[…], time 28 day",568.2 IU/L
same,ALT,"[…], time 28 day",31.6 IU/L
same,AST,"[…], time 28 day",54.4 IU/L
same,BUN,"[…], time 28 day",16.4 mg/dL
same,CRE,"[…], time 28 day",0.5 mg/dL
same,Ca,"[…], time 28 day",10.5 mg/dL
same,Cl,"[…], time 28 day",103.2 meq/L
same,DBIL,"[…], time 28 day",0.1 mg/dL
same,GLC,"[…], time 28 day",208 mg/dL
same,IP,"[…], time 28 day",6.3 mg/dL
same,K,"[…], time 28 day",3.5 meq/L
same,LDH,"[…], time 28 day",133.4 IU/L
same,Na,"[…], time 28 day",140.6 meq/L
same,PL,"[…], time 28 day",146 mg/dL
same,RALB,"[…], time 28 day",3.6 g/dL
same,TBIL,"[…], time 28 day",0.2 mg/dL
same,TC,"[…], time 28 day",66.4 mg/dL
same,TG,"[…], time 28 day",137.6 mg/dL
same,TP,"[…], time 28 day",6.1 g/dL
same,gamma-GTP,"[…], time 28 day",1.4 IU/L
